Test system: E. coli TOP10
Type: cell-based
Settings: end point OD450 after 14 hours, 37 degrees Celsius
Protocol: A range of synthetic antimicrobial polypeptides were expressed in E. coli TOP10 (Invitrogen) using arabinose as inducer, as disclosed in Example 1 of International patent application WO 00/73433 (with minor modifications). […] Briefly, fresh overnight cultures grown in RM medium containing 0.2% glucose and ampicillin (100 μg/ml) were diluted 300-fold into 150 microliter of RM containing 0.2% glycerol and ampicillin (100 μg/ml) and different concentrations of arabinose (0, 0.01% or 0.1%) in a microtiter plate and incubated at 37 degrees Celsius with vigorous shaking. The growth curve was monitored by measuring OD450 using a Bioscreen C Microbiology reader (Thermo Electron Corporation) at intervals of 30 minutes for 14 hours (see Invitrogen protocol of the pBAD/gill A, B and C vectors catalogue nos. V450-01 for buffer and media composition). The percentage of growth inhibition was calculated as the end point OD measurement of each sample divided by the end point OD measurement obtained from cells containing the control vector and multiplied by 100. The formula is the following: [formula] where “blank OD” corresponds to the OD of an empty well.

| Sequence | Growth inhibition using 0.01% arabinose (%) | Growth inhibition using 0.1% arabinose (%) |
| --- | --- | --- |
| GILNIIGRAVKTVLESIR (Synthetic antimicrobial peptide) [SEQ ID NO:25] | 97 | 99 |
| GILNKLRKKLKRVLQRIL (Synthetic antimicrobial peptide) [SEQ ID NO:27] | 84 | 97 |
| GILSKLKKAIKRILQDVLRWL (Synthetic antimicrobial peptide) [SEQ ID NO:43] | 82 | 99 |
| GILSKLKKKAKNAVKMFCRWL (Synthetic antimicrobial peptide) [SEQ ID NO:46] | 92 | 96 |
| GILSMLERRWSMYCSIFCRWL (Synthetic antimicrobial peptide) [SEQ ID NO:45] | 98 | 100 |
| GLFRKLKKTIKRVLKHVP (Synthetic antimicrobial peptide) [SEQ ID NO:31] | 86 | 96 |
| GLFRKLRKKVKKVLKHVL (Synthetic antimicrobial peptide) [SEQ ID NO:23] | 91 | 98 |
| GLFSIIMRAVKKVWQRVR (Synthetic antimicrobial peptide) [SEQ ID NO:9] | 97 | 100 |
| GLFSILKREIKRTFSNFYRWL (GLFSILKREIKRTFSMFYRWL; Synthetic antimicrobial peptide) [SEQ ID NO:41] | 86 | 99 |
| GLFSLLRKTIKKVLQHIR (Synthetic antimicrobial peptide) [SEQ ID NO:32] | 91 | 99 |
| GLFTKLRKATKRILEHVL (Synthetic antimicrobial peptide) [SEQ ID NO:3] | 81 | 87 |
| GLLEKLRKALKRILQHVL (Synthetic antimicrobial peptide) [SEQ ID NO:12] | 91 | 97 |
| GLLGKIRKEGRNFWRVFRRWL (GLLGKIRKEGRMFWRVFRRWL; Synthetic antimicrobial peptide) [SEQ ID NO:38] | 86 | 92 |
| GLLGKLKKELKNVLEHIYRWL (Synthetic antimicrobial peptide) [SEQ ID NO:42] | 75 | 93 |
| GLLGKLKRKIKKALEGIR (Synthetic antimicrobial peptide) [SEQ ID NO:35] | 96 | 99 |
| GLLKTIRKKIKRVLKHVR (Synthetic antimicrobial peptide) [SEQ ID NO:4] | 96 | 99 |
| GLLNKIKKTIKRAVQHVL (Synthetic antimicrobial peptide) [SEQ ID NO:18] | 76 | 92 |

| Sequence | Growth inhibition using 0.01% arabinose (%) | Growth inhibition using 0.1% arabinose (%) |
| --- | --- | --- |
| GLLNKLKKNVKNIVQHILRWL (Synthetic antimicrobial peptide) [SEQ ID NO:40] | 77 | 95 |
| GLLNKLKRALKKVVKHVR (Synthetic antimicrobial peptide) [SEQ ID NO:33] | 84 | 94 |
| GLLRILKKKAKKALQHIL (Synthetic antimicrobial peptide) [SEQ ID NO:37] | 86 | 93 |
| GLLRKIKMKAKKVLKNIL (Synthetic antimicrobial peptide) [SEQ ID NO:22] | 72 | 83 |
| GLLRKLGKKIKRVVKHVG (Synthetic antimicrobial peptide) [SEQ ID NO:10] | 98 | 100 |
| GLLRKLRKEVKKVLSIFFRWL (Synthetic antimicrobial peptide) [SEQ ID NO:39] | 97 | 99 |
| GLLSILKRKSKRILKHIL (Synthetic antimicrobial peptide) [SEQ ID NO:24] | 88 | 96 |
| GLLSKIMKAVKRTLKHIL (Synthetic antimicrobial peptide) [SEQ ID NO:16] | 89 | 99 |
| GLLSKIRKKLKRVLQSIR (Synthetic antimicrobial peptide) [SEQ ID NO:20] | 77 | 94 |
| GLLSKLGKAVKNILEDVV (Synthetic antimicrobial peptide) [SEQ ID NO:28] | 98 | 100 |
| GLLSKLKKTVKRVVKHVR (Synthetic antimicrobial peptide) [SEQ ID NO:19] | 84 | 99 |
| GLLSKLKRKIKKAVKHIL (Synthetic antimicrobial peptide) [SEQ ID NO:30] | 82 | 95 |
| GLLSMLGKAVKRAVQHVL (Synthetic antimicrobial peptide) [SEQ ID NO:26] | 97 | 100 |
| GLLSRLRRATKIILKGIR (Synthetic antimicrobial peptide) [SEQ ID NO:14] | 72 | 88 |
| GLVTLLKKAMKNALEDVL (Synthetic antimicrobial peptide) [SEQ ID NO:21] | 98 | 99 |
| GLWNMLKKKLKKIAQGIR (Synthetic antimicrobial peptide) [SEQ ID NO:15] | 73 | 88 |
| GLWRKLKKALKRAVQGVR (Synthetic antimicrobial peptide) [SEQ ID NO:5] | 91 | 96 |

— patent publication US20070259087A1, “Antimicrobial Peptides” (Novozymes A/S, priority 2003, published 2007)
